The results in this text go back to patent publication EP0427860A1, “NEW IMIDAZOLE DERIVATIVES, PRODUCTION THEREOF, AND USES THEREOF AS MEDICINES” (Kyoto Pharmaceutical Industries, Ltd., priority 1989, dated 1990).

One assay relates to TXB2. The assay is described as follows: Assay of TXB2 in serum after oral administration. The note with it: 10 mg/kg orally, male rats, blood taken 1 hour later, incubated at 37° C for 90 minutes, Control 192.5. In kind it is in vivo. The method, then: Experiment 3 (Assay of TXB2)
The test drug was orally administered to male rats, and 1 hour later, a blood sample was taken from ventral aorta via a polyethylene tube while anesthetized with ether. The blood taken was immediately incubated at 37° C for 90 minutes, and TXB2 was extracted from the serum separated, followed by assay using a [^3H]RIA Kit.

In assay [1] the test system is platelet rich plasma (PRP) from rabbits. Briefly: Inhibitory activities on platelet aggregation (arachidonic acid-induced, transmittance). It is filed as cell-based. The conditions noted are these: test drug 10^-6 M, rabbit PRP, aggregation induced by arachidonic acid (0.1 mM); for inhibition at 1 µM: Oryctolagus cuniculus, Platelet, read-out: Experiment 1 10^-6 M inhibition (%). The method, then:
Experiment 1 (Inhibitory activities on platelet aggregation)
Platelet aggregation of platelet rich plasma (PRP) from rabbits was measured with the use of an NKK- hematracer (Niko Bioscience). That is, to PRP (200µ 1) was added a test drug or a solvent at 37°C while stirring at 1000 rpm, and an aggregation-inducing agent was added thereto 1 minute later, to measure the changes in transmittance caused by the platelet aggregation. Arachidonic acid (0.1 mM) was used as the aggregation-inducing agent.

Assay [2] has as its system lipoperoxide production in rat brain. Briefly: Inhibitory activities on lipoperoxide production in rat brain (MDA yield, TBA method). It is filed as biochemical. The conditions noted are these: rat cerebrum suspension, 37° C for 30 minutes, lipoperoxide measured as MDA yield; read-out: Experiment 2 IC50 value. The method, then:
Experiment 2 (Inhibitory activities on lipoperoxide production in rat brain)
To male rats weighing about 300 g was intraperitoneally administered 100 mg/kg of sodium pentobar- bital and the rats were exsanguinated to death while anesthetized, after which the cerebrum was extracted. The extracted cerebrum was washed with ice-cooled physiological saline, dried gently, and weighed. Thereto was added 5-fold amount by weight of a 50 mM phosphatesaline buffer (pH 7.4), which was then suspended by an ultradisperser under ice-cooling, followed by centrifugation at 1300 g and at 4 C for 10 minutes. The supernatant was 5-fold diluted with the above buffer, and used as a suspension for measurement.
The suspension to which the test drug had been added at 1/100 volume was incubated at 37° C for 30 minutes, and the amount of the resulting lipoperoxide was measured as an MDA yield. The assay of MDA was conducted by a modified method based on Smith et al., and the absorbance of the TBA reaction product at 532 nm was measured.

`O=C(O)CCCC/C=C(\c1ccccc1)c1cccnc1` [CV-4151, reference compound]: the “TXB2” value with TXB2 amounted to 11.0 ng/mL.

On to `CCOC(=O)CCN1CC(CCn2ccnc2)c2ccccc21` (stereo not shown) [Example 1], for which the inhibition (in general, the drop in the measured response relative to a control, in per cent) at 1 µM in assay [1] is 40.3%. In assay [2], the half-maximal inhibitory concentration (IC50) – broadly, the concentration at which inhibition is half-maximal – was 93 µM.

For `O=C(O)CCN1CC(CCn2ccnc2)c2ccccc21` (stereo not shown) [Example 2, 3-[2-(1 H-Imidazol-1-yl)ethyl]-1-indolinepropionic acid], in assay [1], the inhibition at 1 µM was 8.7%.

Take `CCCCCCOc1ccc2c(c1)C(CCn1ccnc1)CN2CCC(=O)OCC` (stereo not shown) [Example 8, Ethyl 5-hexyloxy-3-[2-(1 H-imidazol-1-yl)ethyl]-1-indolinepropionate]: the inhibition at 1 µM in assay [1] was 20.8%. The IC50 in assay [2] worked out at 2.6 µM.

Regarding `CCCCCCOc1ccc2c(c1)C(CCn1ccnc1)CN2CCC(=O)O` (stereo not shown) [Example 9, 5-Hexyloxy-3-[2-(1H-imidazol-1-yl)ethyl]-1-indolinepropionic acid], the inhibition at 1 µM in assay [1] is 28.3%.

On to `CCOC(=O)CCN1CC(CCn2ccnc2)c2cc(OC)ccc21` (stereo not shown) [Example 10], for which, in assay [1], the inhibition at 1 µM was 54.5%. In addition, the IC50 in assay [2] amounted to 18.7 µM.

As for `COc1ccc2c(c1)C(CCn1ccnc1)CN2CCC(=O)O` (stereo not shown) [Example 11], the inhibition at 1 µM in assay [1] turned out to be 36%. Moreover, in assay [2], the IC50 is 73 µM.

Consider `CCCc1ccc2c(c1)C(CCn1ccnc1)CN2CCC(=O)OCC` (stereo not shown) [Example 12], for which the inhibition at 1 µM in assay [1] worked out at 19.7%. The half-inhibitory concentration (IC50) in assay [2] is 4.8 µM.

As to `CCCc1ccc2c(c1)C(CCn1ccnc1)CN2CCC(=O)O` (stereo not shown) [Example 13], in assay [1], the inhibition at 1 µM turned out to be 10.4%. Moreover, the half-maximal inhibitory concentration (IC50) in assay [2] stood at 21.9 µM.

In the case of `CCOC(=O)CCN1CC(CCn2ccnc2)c2cc(C(C)C)ccc21` (stereo not shown) [Example 14], in assay [1], the inhibition at 1 µM was 14.5%. Besides, the IC50 in assay [2] was found to be 6 µM.

For `CC(C)c1ccc2c(c1)C(CCn1ccnc1)CN2CCC(=O)O` (stereo not shown) [Example 15], the inhibition at 1 µM in assay [1] worked out at 1.6%. In addition, the IC50 in assay [2] turned out to be 24.8 µM.

Consider `CCOC(=O)CCN1CC(CCn2ccnc2)c2cc(C3CCCCC3)ccc21` (stereo not shown) [Example 16], for which the inhibition at 1 µM in assay [1] stood at 2.1%.

With `O=C(O)CCN1CC(CCn2ccnc2)c2cc(C3CCCCC3)ccc21` (stereo not shown) [Example 17], in assay [1], the inhibition at 1 µM turned out to be 15.7%. The IC50 in assay [2] turned out to be 2.05 µM.

Take `CCCOc1ccc2c(c1)C(CCn1ccnc1)CN2CCC(=O)OCC` (stereo not shown) [Example 18]: the inhibition at 1 µM in assay [1] amounted to 21.8%.

`CCCOc1ccc2c(c1)C(CCn1ccnc1)CN2CCC(=O)O` (stereo not shown) [Example 19]: the inhibition at 1 µM in assay [1] is 3.6%. Also, the IC50 in assay [2] is 19.4 µM.

As for `CCCCCOc1ccc2c(c1)C(CCn1ccnc1)CN2CCC(=O)OCC` (stereo not shown) [Example 20], in assay [1], the inhibition at 1 µM was determined as 45.2%. In assay [2], the 50% inhibitory concentration (IC50) was 2.05 µM. Besides, the “TXB2” value in the assay on TXB2 was found to be 5.1 ng/mL.

On to `CCCCCOc1ccc2c(c1)C(CCn1ccnc1)CN2CCC(=O)O` (stereo not shown) [Example 21], for which, in assay [1], the inhibition at 1 µM was determined as 5.5%. Further, the concentration for half-maximal inhibition (IC50) in assay [2] was found to be 1.84 µM. Further, the “TXB2” value in the assay with TXB2 came out at 6.7 ng/mL.

Regarding `CCCCCCCOc1ccc2c(c1)C(CCn1ccnc1)CN2CCC(=O)OCC` (stereo not shown) [Example 22], the inhibition at 1 µM in assay [1] was 37%.

`CCCCCCCOc1ccc2c(c1)C(CCn1ccnc1)CN2CCC(=O)O` (stereo not shown) [Example 23]: in assay [1], the inhibition at 1 µM stood at 11.5%. Besides, the IC50 in assay [2] came to 0.25 µM.

As to `CCCCCCCCCOc1ccc2c(c1)C(CCn1ccnc1)CN2CCC(=O)OCC` (stereo not shown) [Example 26], the inhibition at 1 µM in assay [1] turned out to be 40.5%.

As for `CCCCCCCCCOc1ccc2c(c1)C(CCn1ccnc1)CN2CCC(=O)O` (stereo not shown) [Example 27], the inhibition at 1 µM in assay [1] is 27%. Further, in assay [2], the IC50 came out at 0.26 µM. Further, in the assay on TXB2, the “TXB2” value was 4.8 ng/mL.

On to `CCCCCCCCCCCCOc1ccc2c(c1)C(CCn1ccnc1)CN2CCC(=O)O` (stereo not shown) [Example 29], for which the inhibition at 1 µM in assay [1] is 12.1%. The concentration for half-maximal inhibition (IC50) in assay [2] came to 0.24 µM.

As to `C=CCOc1ccc2c(c1)C(CCn1ccnc1)CN2CCC(=O)OCC` (stereo not shown) [Example 30], the inhibition at 1 µM in assay [1] was determined as 28.4%.

Regarding `C=CCOc1ccc2c(c1)C(CCn1ccnc1)CN2CCC(=O)O` (stereo not shown) [Example 31], the inhibition at 1 µM in assay [1] is 0.2%. The IC50 in assay [2] turned out to be 20.3 µM.

As for `O=C(O)/C=C/c1ccc(Cn2ccnc2)cc1` [OKY-046, reference compound], in assay [1], the inhibition at 1 µM came out at 4%.

In the case of “Ethyl 3-[2-(1 H-imidazol-1-yl)ethyl]-1-indolineacetate [Example 5]”, the “Experiment 1 10^-6 M inhibition (%)” value in assay [1] was 20.3%. Moreover, the 50% inhibitory concentration (IC50) in assay [2] was found to be 25 µM.
